# In patent US20250243219A1, “MACROCYCLIC COMPOUNDS AND USES THEREOF” (Cypralis Limited, priority 2022, published 2025):
# Key:
# SH-SY5Y cells = assay: Thapsigargin treated cell death assay in SH-SY5Y cells; assay type: cell-based, human; conditions: compound at 10 μM, positive = protection from cell death, negative = compound toxicity
# From the text: Thapsigargin raises intracellular free calcium (Ca^2+) by potently inhibiting the endoplasmic reticulum Ca-ATPase, which sequesters Ca^2+ from the cytosol. The increased cytosolic Ca^2+ concentration is buffered by mitochondria by exchanging Ca^2+ for K, leading to depolarisation in the inner mitochondrial membrane and permeability transition.
# The thapsigargin treated Jurkat cell death assay is a homogeneous 96 well plate based assay for cell death, instigated by the opening of the mitochondrial permeability transition pore (MPTP). The addition of thapsigargin to Jurkat cells results in an influx of calcium, the increase in intracellular calcium will initially be buffered by the mitochondria, but eventually the increasing calcium concentration will result in the opening of the MPTP, resulting in cell death.
# CellTox™ Green is a dye which is unable to enter the cell until cell death leads to the loss of membrane integrity. Once this happens the CellTox™ Green enters the cell, binds to the cell's DNA and emits a fluorescent signal. […] Unless otherwise stated, the assay is typically run using a range of three compound concentrations of 1, 3 and 10 μM in triplicate and is read kinetically over a period of 24 hours. Compounds are added 30 minutes before the addition of thapsigargin. Compound only controls and positive control, cyclosporin A (CsA) (3 and 10 μM) are also included in the assay. Results are typically calculated at the 8 hour time point and the kinetic data is also reported.
# The assay is carried out as described for the Jurkat cells but using the SH-SY5Y (human neuroblastoma) cell line instead of Jurkat cells. The results are shown in the fourth column of Table 5 (SY5Y [10 μM]% recovery). Positive numbers indicate protection from cell death, negative numbers indicate compound toxicity.
# [1] = tested on: permeabilised HepG2 cells; assay: Calcium retention capacity (CRC) assay in permeabilised HepG2 cells (MPTP opening); assay type: cell-based, human; set-up: CRC [10 μM]: unit not given here; conditions: compound at 10 μM; for CRC [10 μM]: digitonin permeabilised HepG2 cells; for CRC [10 μM] (ratio vs CsA): normalised to cyclosporin A, value in brackets
# Protocol: The use of permeabilised cells means that inhibitory compounds that may not normally enter non-permeabilised cells are more likely to be active.
# The calcium retention capacity (CRC) is a measure of the capability of mitochondria to retain calcium, primarily in the form of calcium phosphates, in the mitochondrial matrix.
# In a CRC assay, the calcium indicator Calcium Green-5N (InVitrogen) is utilized. […] The assay is carried out in HepG2 (human hepatocellular carcinoma) cells which are digitonin permeabilized. Trains of calcium pulses (typically 5 μM additions) are added which results in a sudden increase in fluorescence which is then reduced by mitochondrial buffering. The cells will reach a point at which the calcium addition is no longer buffered, an indication that the MPTP has opened (mitochondrial permeability transition).
# The experiment is performed with and without inhibitor. A compound that acts to inhibit the mitochondrial pore opening will result in a greater requirement for calcium to reach the transition point. The results are normalised to a positive control (cyclosporin A) in each experiment. The results are shown in column 3 of Table 5 as CRC [10 μM] (ratio vs CsA). The method of digitonin permeabilised whole cell CRC assay is similar to that used by Chiara et al. (PLoS One, March, 3, 3, e1852 (2008)).
# cyclophilin D = cyclophilin D (Homo sapiens (Human), UniProt P30405); assay: Functional peptidyl prolyl isomerase (PPIase) spectrophotometric assay, cyclophilin D; assay type: biochemical; conditions: second value of CypA/D cell; read-out: Ki CypD
# Chain of cyclophilin D (P30405 30-207, species assumed): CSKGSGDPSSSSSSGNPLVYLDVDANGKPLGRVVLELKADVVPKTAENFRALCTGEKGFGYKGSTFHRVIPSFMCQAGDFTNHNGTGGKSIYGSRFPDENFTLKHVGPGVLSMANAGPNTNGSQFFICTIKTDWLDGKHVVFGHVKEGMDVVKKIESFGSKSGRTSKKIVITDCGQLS
# From the text: (§1) Cyclophilins are enzymes that catalyse the cis-trans isomerisation of peptide bonds to the amino acid proline. This event is important in many biological processes, including protein folding and signal transduction. […] The method to measure this activity and its inhibition is similar to that described by Jankowski (Analytical Biochemistry, 252, 2, 299-307 (1997)). The assay measures the cis to trans isomerisation of a peptide substrate catalysed by a PPlase enzyme using a UV/Vis spectrophotometer. This assay is a manual single cuvette-based assay. A first order rate equation is fitted to the absorbance data to obtain a rate constant. The catalytic rate is calculated from the enzymatic rate minus the background rate. The Ki (the concentration required to produce half maximum inhibition) for an inhibitor is obtained from the rate constant plotted against the inhibitor concentration. Typically, a 6-point dose response curve is obtained from duplicates and a Ki determined. Data are given in Table 5 as Ki [nM] for cyclophilins A and D, expressed in column 2 of Table 5 as Ki (cypA)/Ki (cypD).
# cyclophilin A = cyclophilin A (Homo sapiens (Human), UniProt P62937); assay: Functional peptidyl prolyl isomerase (PPIase) spectrophotometric assay, cyclophilin A; assay type: biochemical; conditions: first value of CypA/D cell
# Chain of cyclophilin A (P62937 whole entry, species assumed): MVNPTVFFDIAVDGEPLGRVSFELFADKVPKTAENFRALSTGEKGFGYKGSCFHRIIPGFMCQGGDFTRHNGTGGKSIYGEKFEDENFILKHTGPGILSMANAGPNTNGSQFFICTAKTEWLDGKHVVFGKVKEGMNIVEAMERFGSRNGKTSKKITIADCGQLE
# From the text: as §1
Ki (cyclophilin D) [µM],Ki (cyclophilin A) [µM],Compound,CRC [10 μM] [1],CRC [10 μM] (ratio vs CsA) [1],SYSY [10 μM] % recovery (SH-SY5Y cells) [%],other results
0.45,–,"C[C@@H]1NC(=O)[C@@H](CC2CCCNC2)OC(=O)C(C)(C)/C=C/c2ccc3ccc(nc3c2)N(C)NC(=O)[C@@H]2CCCN(N2)C1=O (single isomer, unassigned) [Compound (30)]",10,0.33,–,SYSY [10 μM] % recovery (SH-SY5Y cells; listed as 30): 10%
0.18,0.79,"C[C@@H]1NC(=O)[C@@H](CC2CCCNC2)OC(=O)C(C)(C)/C=C/c2ccc3ccc(nc3c2)N(C)NC(=O)[C@@H]2CCCN(N2)C1=O (single isomer, unassigned) [Compound (31)]",10,0.33,–,SYSY [10 μM] % recovery (SH-SY5Y cells; listed as 31): 12%
3.8,0.28,"C[C@@H]1NC(=O)[C@@H](CC2CCCNC2)OC(=O)C(C)(C)/C=C/c2ccc3ccc(nc3c2)N(C)N(C)C(=O)[C@@H]2CCCN(N2)C1=O (single isomer, unassigned) [Compound (33)]",5,–,9,CRC [10 μM] (ratio vs CsA) ([1]; listed as 33): 0.2
0.19,0.16,"CNC(=O)c1ccc(CC2OC(=O)C(C)(C)/C=C/c3ccc4ccc(nc4c3)N(C)NC(=O)[C@@H]3CCCN(N3)C(=O)[C@H](C)NC2=O)cc1 (single isomer, unassigned) [Compound (38)]",–,–,–,SYSY [10 μM] % recovery (SH-SY5Y cells; listed as 38): 8%; CRC [10 μM] ([1]; listed as 38): 7.5; CRC [10 μM] (ratio vs CsA) ([1]; listed as 38): 0.33
0.036,0.03,"CNC(=O)c1ccc(CC2OC(=O)C(C)(C)/C=C/c3ccc4ccc(nc4c3)N(C)NC(=O)[C@@H]3CCCN(N3)C(=O)[C@H](C)NC2=O)cc1 (single isomer, unassigned) [Compound (39)]",–,–,–,SYSY [10 μM] % recovery (SH-SY5Y cells; listed as 39): 0%; CRC [10 μM] ([1]; listed as 39): 15; CRC [10 μM] (ratio vs CsA) ([1]; listed as 39): 0.67
–,–,"C[C@@H]1NC(=O)C(Cc2ccc(C(=O)O)cc2)OC(=O)C(C)(C)/C=C/c2ccc3ccc(nc3c2)N(C)NC(=O)[C@@H]2CCCN(N2)C1=O (single isomer, unassigned) [Compound (40)]",–,–,–,SYSY [10 μM] % recovery (SH-SY5Y cells; listed as 40): 51%; CRC [10 μM] ([1]; listed as 40): 5; CRC [10 μM] (ratio vs CsA) ([1]; listed as 40): 0.33
0.22,0.03,"C[C@@H]1NC(=O)C(Cc2ccc(C(=O)O)cc2)OC(=O)C(C)(C)/C=C/c2ccc3ccc(nc3c2)N(C)NC(=O)[C@@H]2CCCN(N2)C1=O (single isomer, unassigned) [Compound (41)]",–,–,–,SYSY [10 μM] % recovery (SH-SY5Y cells; listed as 41): 0%; CRC [10 μM] ([1]; listed as 41): 10; CRC [10 μM] (ratio vs CsA) ([1]; listed as 41): 0.67
0.054,0.025,CC(C)[C@H]1OC(=O)C/C=C/c2ccc3ccc(nc3c2)N(C)NC(=O)[C@@H]2CCCN(N2)C(=O)[C@H](C)NC1=O (stereo in doubt) [Compound (1)],35,0.95,8.4,–
0.0043,0.0017,CC(C)[C@@H]1OC(=O)C(C)(C)/C=C/c2ccc3ccc(nc3c2)N(Cc2ccccc2)NC(=O)[C@@H]2CCCN(N2)C(=O)[C@H](C)NC1=O [Compound (9)],279.4,1,87.067,–
0.049,0.24,CNC(=O)c1ccc(C[C@@H]2OC(=O)C(C)(C)/C=C/c3ccc4ccc(nc4c3)N(C)N(C)C(=O)[C@@H]3CCCN(N3)C(=O)[C@H](C)NC2=O)cc1 [Compound (12)],15,0.75,25,–
0.011,0.0049,COC[C@@]1(C)/C=C/c2ccc3ccc(nc3c2)N(C)NC(=O)[C@@H]2CCCN(N2)C(=O)[C@H](C)NC(=O)[C@H](C(C)C)OC1=O [Compound (13)],35,0.95,8.4,–
0.025,0.017,COC[C@]1(C)/C=C/c2ccc3ccc(nc3c2)N(C)NC(=O)[C@@H]2CCCN(N2)C(=O)[C@H](C)NC(=O)[C@H](C(C)C)OC1=O [Compound (14)],40,1.09,9.3,–
0.014,0.0017,CC(C)[C@@H]1OC(=O)[C@](C)(Cc2ccccc2)/C=C/c2ccc3ccc(nc3c2)N(C)NC(=O)[C@@H]2CCCN(N2)C(=O)[C@H](C)NC1=O [Compound (16)],25,0.83,62,–
0.009,0.0017,CC(C)[C@@H]1OC(=O)[C@@](C)(Cc2ccccc2)/C=C/c2ccc3ccc(nc3c2)N(C)NC(=O)[C@@H]2CCCN(N2)C(=O)[C@H](C)NC1=O [Compound (17)],33.3,0.95,87.8,–
0.0061,0.0025,CC(C)[C@@H]1OC(=O)C2(/C=C/c3ccc4ccc(nc4c3)N(C)NC(=O)[C@@H]3CCCN(N3)C(=O)[C@H](C)NC1=O)CCCC2 [Compound (21)],32.5,0.93,33.8,–
0.027,0.013,CC(C)[C@@H]1NC(=O)C(C)(C)/C=C/c2ccc3ccc(nc3c2)N(C)NC(=O)[C@@H]2CCCN(N2)C(=O)[C@H](C)NC1=O [Compound (22)],25,0.83,4,–
0.0062,0.0175,CC(C)[C@@H]1CC(=O)C(C)(C)/C=C/c2ccc3ccc(nc3c2)N(C)NC(=O)[C@@H]2CCCN(N2)C(=O)[C@H](C)NC1=O [Compound (25)],20,0.8,26.2,–
1.1,1.1,C[C@@H]1NC(=O)[C@H](CC2CCCNC2)NC(=O)C(C)(C)/C=C/c2ccc3ccc(nc3c2)N(C)NC(=O)[C@@H]2CCCN(N2)C1=O (some centres unmarked) [Compound (35)],10,0.41,37,–
1.4,0.39,C[C@@H]1NC(=O)[C@H](C[C@@H]2CCCN(C)C2)OC(=O)C(C)(C)/C=C/c2ccc3ccc(nc3c2)N(C)NC(=O)[C@@H]2CCCN(N2)C1=O [Compound (36)],7.5,0.42,19,–
